Data from patent US9023809B2, “Phenylalanine dipeptide derivatives, compositions and use thereof” (The Key Laboratory of Chemistry For Natural Products of …, priority 2008, dated 2015).
Converted amounts (≈) assume the structure as drawn. Where a SMILES comes first, the peptide text is derived from it. [ ]: non-standard residue; d: D form. The star is where a group is joined. Phe(4-NO2) = N[C@@H](Cc1ccc([N+](=O)[O-])cc1)C(=O)O; Phe(4-NH2) = Nc1ccc(C[C@H](N)C(=O)O)cc1; 4Abz = Nc1ccc(C(=O)O)cc1; Propionyl = CCC(=O)*; Bz = O=C(c1ccccc1)*

How the values were obtained:
[1] = system: HBV DNA replication; assay: In vitro anti-HBV: inhibition of HBV DNA replication in 2.2.15 cells (dot blot); assay type: cell-based, hepatitis B virus; details: day 8, dot blot; for IC50: Hepatitis B virus, 192 h
Experimental: (§1) Cell control wells were simultaneously set up. […] IC50 and SI were calculated, respectively.

[2] = system: 2.2.15 cells; assay: Cytotoxicity (TC50, median toxic concentration) in 2.2.15 cells; assay type: cell-based
Experimental: as §1

Row | Structure (SMILES) | IC50 [1] | TC50 [2] | Inhibition of DNA Replication IC50 [1] | melting point
1 | O=C(N[C@@H](Cc1ccc(O)cc1)C(=O)N[C@H](CO)Cc1ccccc1)c1ccc(Cl)cc1 [Example 19, N-(N-4-chloro-benzoyl-L-tyrosyl)-L-phenylalaninol] | 103 µg/mL (≈ 228 µM) | 587.06 µg/mL (≈ 1300 µM) |  | 
2 | CN(C)CCOc1ccc(C(=O)N[C@@H](Cc2ccccc2)C(=O)N[C@H](CO)Cc2ccccc2)cc1 [Example 77, N-[N-4-(2-dimethylamino-ethoxyl)-benzoyl-L-phenylalanyl]-L-phenylalaninol] |  | 160.25 µg/mL (≈ 327 µM) | 13.51 µg/mL | 
3 | COC(=O)[C@H](Cc1ccccc1)NC(=O)[C@H](Cc1ccccc1)N(C(C)=O)C(=O)c1ccccc1 [Example 57, methyl N-(N-benzoyl-acetyl-L-phenylalanyl)-L-phenylalaninate] | 59.5 µg/mL (≈ 126 µM) | 451.20 µg/mL (≈ 955 µM) |  | 221 to 222 °C
4 | Cc1cccc(C(=O)N[C@@H](Cc2ccccc2)C(=O)N[C@H](CO)Cc2ccccc2)c1 [Example 05, N-(N-3-methyl-benzoyl-L-phenylalanyl)-L-phenylalaninol] | 25.2 µg/mL (≈ 60.5 µM) | 77.04 µg/mL (≈ 185 µM) |  | 177 to 178.5 °C
5 | COC(=O)[C@H](Cc1ccc(OC)cc1)NC(=O)[C@H](Cc1ccccc1)NC(=O)c1ccccc1 [Example 71, methyl N-(N-benzoyl-L-phenylalanyl)-O-methyl-L-tyrosinate] (Bz-Phe-Tyr(Me)-OMe) | 6.62 µg/mL (≈ 14.4 µM) | 388.03 µg/mL (≈ 843 µM) |  | 
6 | COC(=O)[C@H](Cc1ccc(O)cc1)NC(=O)[C@H](Cc1ccccc1)NC(=O)c1ccccc1 [Example 04, methyl N-(N-benzoyl-L-phenylalanyl)-L-tyrosinate] (Bz-Phe-Tyr-OMe) | 51.8 µg/mL (≈ 116 µM) | 450.67 µg/mL (≈ 1010 µM) |  | 184 to 186 °C
7 | COC(=O)[C@H](Cc1ccc(O)cc1)NC(=O)[C@H](Cc1ccc([N+](=O)[O-])cc1)NC(=O)c1ccccc1 [Example 14, methyl N-(N-benzoyl-4-nitro-L-phenylalanyl)-L-tyrosinate] (Bz-[Phe(4-NO2)]-Tyr-OMe) | 1.16 µg/mL (≈ 2.36 µM) | 53.42 µg/mL (≈ 109 µM) |  | 200 to 202 °C
8 | O=C(N[C@@H](Cc1ccc(O)cc1)C(=O)N[C@H](CO)Cc1ccccc1)c1ccc(F)cc1 [Example 24, N-(N-4-fluoro-benzoyl-L-tyrosyl)-L-phenylalaninol] | 96 µg/mL (≈ 220 µM) | 396.81 µg/mL (≈ 909 µM) |  | 194.5 to 195.5 °C
9 | CC(=O)Nc1ccc(C[C@H](NC(=O)c2ccccc2)C(=O)N[C@@H](Cc2ccccc2)C(=O)O)cc1 [Example 87, N-(N-benzoyl-4-acetamido-L-phenylalanyl)-L-phenylalanine] (Bz-[Phe(4-NH2)](Ac)-Phe-OH) | 1.81 µg/mL (≈ 3.82 µM) | 43.11 µg/mL (≈ 91 µM) |  | 233.5 to 235.5 °C
10 | COC(=O)[C@H](Cc1ccc(O)cc1)NC(=O)[C@H](Cc1ccccc1)NC(=O)c1ccc(NC(C)=O)cc1 [Example 36, methyl N-[N-(4-acetamido-benzoyl)-L-phenylalanyl]-L-tyrosinate] (Ac-[4Abz]-Phe-Tyr-OMe) | 4.56 µg/mL (≈ 9.06 µM) | 388.03 µg/mL (≈ 771 µM) |  | 215.5 to 217 °C
11 | COC(=O)[C@H](Cc1ccccc1)NC(=O)[C@H](Cc1ccc(O)cc1)NC(=O)c1ccc(Cl)cc1 [Example 20, methyl N-(N-4-chloro-benzoyl-L-tyrosyl)-L-phenylalaninate] | 48.5 µg/mL (≈ 101 µM) | 198.46 µg/mL (≈ 413 µM) |  | 203.5 to 205 °C
12 | COC(=O)[C@H](Cc1ccccc1)NC(=O)[C@H](Cc1ccccc1)NC(=O)c1ccc(F)cc1 [Example 03, methyl N-(N-4-fluoro-benzoyl-L-phenylalanyl)-L-phenylalaninate] | 0.63 µg/mL (≈ 1.4 µM) | 17.81 µg/mL (≈ 39.7 µM) |  | 
13 | CN(C)Cc1ccc(C(=O)N[C@@H](Cc2ccccc2)C(=O)N[C@H](CO)Cc2ccccc2)cc1 [Example 49, N-[N-(4-dimethylaminomethyl-benzoyl)-L-phenylalanyl]-L-phenylalaninol] | 7.28 µg/mL (≈ 15.8 µM) | 86.23 µg/mL (≈ 188 µM) |  | 
14 | O=C(N[C@@H](Cc1ccccc1)C(=O)N[C@H](CO)Cc1ccccc1)c1ccc(CN2CCOCC2)cc1 [Example 51, N-{N-[4-(4-morpholinyl)methyl-benzoyl]-L-phenylalanyl}-L-phenylalaninol] | 6.98 µg/mL (≈ 13.9 µM) | 78.52 µg/mL (≈ 157 µM) |  | 183 to 184.5 °C
15 | CC(=O)Nc1ccc(C[C@H](NC(=O)c2ccccc2)C(=O)N[C@H](COC(C)=O)Cc2ccccc2)cc1 [Example 54, N-(N-benzoyl-4-acetamido-L-phenylalanyl)-O-acetyl-L-phenylalaninol] | 0.82 µg/mL (≈ 1.63 µM) | 43.11 µg/mL (≈ 85.9 µM) |  | 
16 | O=C(N[C@@H](Cc1ccccc1)C(=O)N[C@@H](Cc1ccccc1)C(=O)O)c1ccccc1 [Example 86, N-(N-benzoyl-L-phenylalanyl)-L-phenylalanine] (Bz-Phe-Phe-OH) | 10.6 µg/mL (≈ 25.4 µM) | 130.56 µg/mL (≈ 313 µM) |  | 

Row | Structure (SMILES) | IC50 [1] | TC50 [2] | Inhibition of DNA Replication IC50 [1] | melting point
17 | CC(=O)Nc1ccc(C(=O)N[C@@H](Cc2ccccc2)C(=O)N[C@H](CO)Cc2ccccc2)cc1 [Example 39, N-[N-(4-acetamido-benzoyl)-L-phenylalanyl]-L-phenylalaninol] | 0.34 µg/mL (≈ 0.74 µM) | 14.37 µg/mL (≈ 31.3 µM) |  | 193 to 195 °C
18 | O=C(N[C@@H](Cc1ccc([N+](=O)[O-])cc1)C(=O)N[C@@H](Cc1ccccc1)C(=O)O)c1ccccc1 [Example 88, N-(N-benzoyl-4-nitro-L-phenylalanyl)-L-phenylalanine] (Bz-[Phe(4-NO2)]-Phe-OH) | 25 µg/mL (≈ 54.2 µM) | 388.03 µg/mL (≈ 841 µM) |  | 
19 | COC(=O)[C@H](Cc1ccccc1)NC(=O)[C@H](Cc1ccc(O)cc1)NC(=O)c1ccc(F)cc1 [Example 25, methyl N-(N-4-fluoro-benzoyl-L-tyrosyl)-L-phenylalaninate] | 68.7 µg/mL (≈ 148 µM) | 574.76 µg/mL (≈ 1240 µM) |  | 186.5 to 189 °C
20 | CCOC(=O)c1ccc(C(=O)N[C@@H](Cc2ccccc2)C(=O)N[C@H](CO)Cc2ccccc2)cc1 [Example 52, N-[N-(4-ethoxycarbonyl-benzoyl)-L-phenylalanyl]-L-phenylalaninol] | 24.2 µg/mL (≈ 51 µM) | 89.23 µg/mL (≈ 188 µM) |  | 188 to 189.5 °C
21 | COc1ccc(C[C@H](NC(=O)[C@H](Cc2ccccc2)NC(=O)c2ccccc2)C(=O)[O-])cc1.[Na+] [Example 79, N-(N-benzoyl-L-phenylalanyl)-O-methyl-L-tyrosine sodium salt] (Bz-Phe-Tyr(Me)-OH) | 9.59 µg/mL | 86.23 µg/mL |  | 
22 | COC(=O)[C@H](Cc1ccc(OC(C)=O)cc1)NC(=O)[C@H](Cc1ccc(NC(C)=O)cc1)NC(=O)c1ccc(C)cc1 [Example 68, methyl N-[N-(4-methyl-benzoyl)-4-acetamido-L-phenylalanyl]-O-acetyl-L-tyrosinate] | 13.1 µg/mL (≈ 23.4 µM) | 388.03 µg/mL (≈ 693 µM) |  | 222 to 223 °C
23 | CCC(=O)Nc1ccc(C(=O)N[C@@H](Cc2ccccc2)C(=O)N[C@@H](Cc2ccccc2)C(=O)OC)cc1 [Example 37, methyl N-[N-(4-propionamido-benzoyl)-L-phenylalanyl]-L-phenylalaninate] ({Propionyl-4Abz}-Phe-Phe-OMe) | 1.43 µg/mL (≈ 2.85 µM) | 129.34 µg/mL (≈ 258 µM) |  | 225 to 227 °C
24 | CC(=O)OC[C@H](Cc1ccccc1)NC(=O)[C@H](Cc1ccccc1)NC(=O)c1ccccc1 [Example 55, N-(N-benzoyl-L-phenylalanyl)-O-acetyl-L-phenylalaninol] | 4.96 µg/mL (≈ 11.2 µM) | 53.42 µg/mL (≈ 120 µM) |  | 
25 | Cc1ccc(C(=O)N[C@@H](Cc2ccc(O)cc2)C(=O)N[C@H](CO)Cc2ccccc2)cc1 [Example 26, N-(N-4-methyl-benzoyl-L-tyrosyl)-L-phenylalaninol] |  | 472.10 µg/mL (≈ 1090 µM) |  | 193 to 195 °C
26 | CCC(=O)Nc1ccc(C[C@H](NC(=O)[C@H](Cc2ccccc2)NC(=O)c2ccccc2)C(=O)OC)cc1 [Example 64, methyl N-(N-benzoyl-L-phenylalanyl)-4-propionamido-L-phenylalaninate] (Bz-Phe-[Phe(4-NH2)](Propionyl)-OMe) |  | 58.54 µg/mL (≈ 117 µM) |  | 244.5 to 246 °C
27 | O=C(O)CCC(=O)Nc1ccc(C[C@H](NC(=O)c2ccccc2)C(=O)N[C@H](CO)Cc2ccccc2)cc1 [Example 83, N-[N-benzoyl-4-(3-carboxyl-propionamido)-L-phenylalanyl]-L-phenylalaninol] | 253 µg/mL (≈ 488 µM) | >1000 µg/mL |  | 
28 | COC(=O)[C@H](Cc1ccc(O)cc1)NC(=O)[C@H](Cc1ccccc1)NC(=O)c1ccccc1Cl [Example 11, methyl N-(N-2-chloro-benzoyl-L-phenylalanyl)-L-tyrosinate] |  | 500.00 µg/mL (≈ 1040 µM) |  | 164.5 to 167 °C
29 | COC(=O)[C@H](Cc1ccccc1)NC(=O)[C@H](Cc1ccc(OC(C)=O)c(NC(C)=O)c1)NC(=O)c1ccccc1 [Example 63, methyl N-(N-benzoyl-O-acetyl-3-acetamido-L-tyrosyl)-L-phenylalaninate] | 53.1 µg/mL (≈ 97.4 µM) | 358.02 µg/mL (≈ 656 µM) |  | 
30 | O=C(N[C@@H](Cc1ccc([N+](=O)[O-])cc1)C(=O)N[C@H](CO)Cc1ccccc1)c1ccccc1 [Example 06, N-(N-benzoyl-4-nitro-L-phenylalanyl)-L-phenylalaninol] |  | 53.42 µg/mL (≈ 119 µM) |  | 196 to 199 °C
31 | COC(=O)[C@H](Cc1ccccc1)NC(=O)[C@H](Cc1ccccc1)NC(=O)c1ccc(OCCN(C)C)cc1 [Example 78, methyl N-[N-4-(2-dimethylamino-ethoxyl)-benzoyl-L-phenylalanyl]-L-phenylalaninate] |  | 257.31 µg/mL (≈ 497 µM) | 54.28 µg/mL | 
32 | CN(C)c1ccc(C[C@H](NC(=O)c2ccccc2)C(=O)N[C@H](CO)Cc2ccccc2)cc1 [Example 84, N-(N-benzoyl-4-dimethylamino-L-phenylalanyl)-L-phenylalaninol] | 1.44 µg/mL (≈ 3.23 µM) | 86.23 µg/mL (≈ 194 µM) |  | 
